Assay results: ChEMBL document CHEMBL1155610, “A new indanone from the marine cyanobacterium Lyngbya majuscula that inhibits hypoxia-induced activation of the VEGF promoter in Hep3B cells” (J Nat Prod, 2000)
Active and inactive are the calls of the source. No cut-off for these calls is given here.

Key:
Type in all cases: functional, cell-based
Hep 3B2 [1] = experiment: Effect on luciferase reporter gene expression in human Hep3B cells after 18 hrs
Hep 3B2 [2] = experiment: Inhibition of hypoxia-induced VEGF165 protein secretion in human Hep3B cells after 18 hrs by ELISA
Hep 3B2 [3] = experiment: Inhibition of hypoxia-induced activation of VEGF gene promoter in human Hep3B cells after 18 hrs by luciferase reporter gene assay
Hep 3B2 [4] = experiment: Growth inhibition of human Hep3B cells after 18 hrs

IC50 (Hep 3B2 [3]): 25 µM
SMILES: COC1CC(=O)c2c(C=O)cc(C)cc21 (centres undefined)
Activity (Hep 3B2 [1]): inactive
Activity (Hep 3B2 [2]): inactive
Activity (Hep 3B2 [4]): inactive
